# According to patent US20180200257A1, “METHODS FOR THE TREATMENT OF INFLAMMATORY DISORDERS” (Galapagos NV, priority 2015, published 2018):
# Test system: Subjects With Active Crohn's Disease With Evidence of Mucosal Ulceration
# Assay: Study 3 - Alanine Aminotransferase (ALT) levels
# Type: in vivo, human
# Text: Double-Blind, Randomized, Placebo-Controlled, Multi-Centre Study to Investigate the Efficacy and Safety of Compound 1 in Subjects With Active Crohn's Disease With Evidence of Mucosal Ulceration. This is a double-blind, randomized, placebo-controlled, multi-centre Phase 2 study to investigate the efficacy and safety of Compound 1 administered once daily for the treatment of active CD with evidence of mucosal ulceration. The pharmacokinetics (including a PK substudy) and pharmacodynamics of Compound 1 and metabolite in CD will also be characterised. A total of 180 eligible subjects will be randomized to receive Compound 1 or placebo in addition to their stable background treatment (eg, corticosteroids, aminosalicylates, or CD-related antibiotics). The study will consist of 2 parts, with total treatment duration of 20 weeks. Randomization in Part 1 will be stratified according the subject's previous anti-TNF exposure/response, CRP level at Screening, and oral corticosteroid use at visit Day −1. After the first 10 weeks of treatment in Part 1, patients will be re-randomized for Part 2 as shown in the diagram below and will be stratified according to the subject's clinical response, previous anti-TNF exposure/response, and oral corticosteroid use at visit Day -1. [table] ALT levels determination is available at Quest Diagnostics, Clinical Trials, Quest House, 125-135 Staines Road, Hounslow, Middlesex, TW3 3JB, United Kingdom under Catalogue n#84460. ALT catalyzes the exchange of the amino group of alanine with the oxogroup of 2-ketoglutarate to form pyruvate and glutamate. In the presence of lactic dehydrogenase, pyruvate reacts with NADH to form NAD+, measured spectrophotometrically. Guidelines for the ALT value have been issued by the association for Clinical Biochemistry and Laboratory Medicine, 130-132 Tooley Street LONDON SE1 2TU, united Kingdom, wherein the ALT value should be below 34 U/l in Female and below 52 U/L in male.
# [1] = 10 weeks results, 200 mg q.d., week 2
# [2] = 10 weeks results, 200 mg q.d., week 4
# [3] = 10 weeks results, 200 mg q.d., week 6
# [4] = 10 weeks results, 200 mg q.d., week 10
# [5] = 20 weeks results, 200 mg q.d. week 0 to 10, to 100 mg q.d. week 10 to 20, week 2
# [6] = 20 weeks results, 200 mg q.d. week 0 to 10, to 100 mg q.d. week 10 to 20, week 4
# [7] = 20 weeks results, 200 mg q.d. week 0 to 10, to 100 mg q.d. week 10 to 20, week 6
# [8] = 20 weeks results, 200 mg q.d. week 0 to 10, to 100 mg q.d. week 10 to 20, week 10
# [9] = 20 weeks results, 200 mg q.d. week 0 to 10, to 100 mg q.d. week 10 to 20, week 12
# [10] = 20 weeks results, 200 mg q.d. week 0 to 10, to 100 mg q.d. week 10 to 20, week 16
# [11] = 20 weeks results, 200 mg q.d. week 0 to 10, to 100 mg q.d. week 10 to 20, week 20
# [12] = 20 weeks results, 200 mg q.d. week 0 to 10, to placebo week 10 to 20, week 2
# [13] = 20 weeks results, 200 mg q.d. week 0 to 10, to placebo week 10 to 20, week 4
# [14] = 20 weeks results, 200 mg q.d. week 0 to 10, to placebo week 10 to 20, week 6
# [15] = 20 weeks results, 200 mg q.d. week 0 to 10, to placebo week 10 to 20, week 10
# [16] = 20 weeks results, 200 mg q.d. week 0 to 10, to placebo week 10 to 20, week 12
# [17] = 20 weeks results, 200 mg q.d. week 0 to 10, to placebo week 10 to 20, week 16
# [18] = 20 weeks results, 200 mg q.d. week 0 to 10, to placebo week 10 to 20, week 20
# [19] = 20 weeks results, continued 200 mg q.d., week 2
# [20] = 20 weeks results, continued 200 mg q.d., week 4
# [21] = 20 weeks results, continued 200 mg q.d., week 6
# [22] = 20 weeks results, continued 200 mg q.d., week 10
# [23] = 20 weeks results, continued 200 mg q.d., week 12
# [24] = 20 weeks results, continued 200 mg q.d., week 16
# [25] = 20 weeks results, continued 200 mg q.d., week 20
# [26] = 20 weeks results, placebo week 0 to 10, to 100 mg q.d. week 10 to 20, week 12
# [27] = 20 weeks results, placebo week 0 to 10, to 100 mg q.d. week 10 to 20, week 16
# [28] = 20 weeks results, placebo week 0 to 10, to 100 mg q.d. week 10 to 20, week 20
compound,measurement,setting,value
"O=C(Nc1nc2cccc(-c3ccc(CN4CCS(=O)(=O)CC4)cc3)n2n1)C1CC1 [Compound 1, cyclopropanecarboxylic acid {5-[4-(1,1-dioxo-thiomorpholin-4-ylmethyl)-phenyl]-[1,2,4]triazolo[1,5-a]pyridin-2-yl}-amide]",Study 3 - ALT Mean CFB,[1],0.0 IU/L
same,Study 3 - ALT Mean percentage CFB,[1],8.3%
same,Study 3 - ALT Mean CFB,[2],−0.6 IU/L
same,Study 3 - ALT Mean percentage CFB,[2],5.8%
same,Study 3 - ALT Mean CFB,[3],−1.2 IU/L
same,Study 3 - ALT Mean percentage CFB,[3],3.1%
same,Study 3 - ALT Mean CFB,[4],1.6 IU/L
same,Study 3 - ALT Mean percentage CFB,[4],24.4%
same,Study 3 - ALT Mean CFB,[5],−2.03 IU/L
same,Study 3 - ALT Mean percentage CFB,[5],−4.84%
same,Study 3 - ALT Mean CFB,[6],−1.93 IU/L
same,Study 3 - ALT Mean percentage CFB,[6],−3.24%
same,Study 3 - ALT Mean CFB,[7],−1.60 IU/L
same,Study 3 - ALT Mean percentage CFB,[7],−0.60%
same,Study 3 - ALT Mean CFB,[8],−0.50 IU/L
same,Study 3 - ALT Mean percentage CFB,[8],5.92%
same,Study 3 - ALT Mean CFB,[9],0.03 IU/L
same,Study 3 - ALT Mean percentage CFB,[9],3.56%
same,Study 3 - ALT Mean CFB,[10],0.21 IU/L
same,Study 3 - ALT Mean percentage CFB,[10],8.83%
same,Study 3 - ALT Mean CFB,[11],6.15 IU/L
same,Study 3 - ALT Mean percentage CFB,[11],38.62%
same,Study 3 - ALT Mean CFB,[12],−2.30 IU/L
same,Study 3 - ALT Mean percentage CFB,[12],3.63%
same,Study 3 - ALT Mean CFB,[13],−2.04 IU/L
same,Study 3 - ALT Mean percentage CFB,[13],8.87%
same,Study 3 - ALT Mean CFB,[14],−3.78 IU/L
same,Study 3 - ALT Mean percentage CFB,[14],1.03%
same,Study 3 - ALT Mean CFB,[15],−1.48 IU/L
same,Study 3 - ALT Mean percentage CFB,[15],12.60%
same,Study 3 - ALT Mean CFB,[16],1.48 IU/L
same,Study 3 - ALT Mean percentage CFB,[16],16.15%
same,Study 3 - ALT Mean CFB,[17],1.90 IU/L
same,Study 3 - ALT Mean percentage CFB,[17],23.87%
same,Study 3 - ALT Mean CFB,[18],−0.38 IU/L
same,Study 3 - ALT Mean percentage CFB,[18],17.82%
same,Study 3 - ALT Mean CFB,[19],1.46 IU/L
same,Study 3 - ALT Mean percentage CFB,[19],14.82%
same,Study 3 - ALT Mean CFB,[20],0.36 IU/L
same,Study 3 - ALT Mean percentage CFB,[20],8.36%
same,Study 3 - ALT Mean CFB,[21],−0.17 IU/L
same,Study 3 - ALT Mean percentage CFB,[21],5.47%
same,Study 3 - ALT Mean CFB,[22],3.75 IU/L
same,Study 3 - ALT Mean percentage CFB,[22],38.09%
same,Study 3 - ALT Mean CFB,[23],3.00 IU/L
same,Study 3 - ALT Mean percentage CFB,[23],26.61%
same,Study 3 - ALT Mean CFB,[24],4.04 IU/L
same,Study 3 - ALT Mean percentage CFB,[24],33.15%
same,Study 3 - ALT Mean CFB,[25],2.53 IU/L
same,Study 3 - ALT Mean percentage CFB,[25],22.15%
same,Study 3 - ALT Mean CFB,[26],−0.55 IU/L
same,Study 3 - ALT Mean percentage CFB,[26],10.24%
same,Study 3 - ALT Mean CFB,[27],−1.95 IU/L
same,Study 3 - ALT Mean percentage CFB,[27],2.75%
same,Study 3 - ALT Mean CFB,[28],−2.05 IU/L
same,Study 3 - ALT Mean percentage CFB,[28],4.96%
